Experimental data published in ChEMBL document CHEMBL4706615, “(Carbonyl)oxyalkyl linker-based amino acid prodrugs of the HIV-1 protease inhibitor atazanavir that enhance oral bioavailability and plasma trough concentration” (Eur J Med Chem, 2020).
In brackets after ≈: the same amount, converted by molar mass.

Assays:
[1] = Stability of compound in phosphate buffer at pH 6.5; assay type: physicochemical
[2] = Stability of compound in 0.1 N aqueous HCl buffer at pH 1; assay type: physicochemical
[3] = Stability of compound in acetate buffer at pH 4; assay type: physicochemical
[4] = Relative oral bioavailability in Sprague-Dawley rat assessed as atazanavir level at 3 mg/kg equiv of atazanavir; assay type: ADME, organism-based; conditions: in vivo
[5] = Solubility of compound in 0.1 N aqueous HCl buffer at pH 1; assay type: physicochemical
[6] = Half life in phosphate buffer at pH 6.5; assay type: physicochemical; conditions: for half-life: phosphate buffer; for t1/2: buffer
[7] = AUClast in Sprague-Dawley rat assessed as atazanavir level at 3 mg/kg equiv of atazanavir administered orally; assay type: ADME, organism-based; parameters: route oral, time 0 - last, dose 3 mg/kg(equiv); conditions: in vivo, po
[8] = Trough plasma concentration in Sprague-Dawley rat assessed as atazanavir level at 3 mg/kg equiv of atazanavir administered orally measured after 24 hrs; assay type: ADME, organism-based; conditions: in vivo, po; for concentration: read-out: Cmin; for Cmin: BLD = below limit of detection
[9] = Half life in 0.1 N aqueous HCl buffer at pH 1; assay type: physicochemical; conditions: for half-life: 0.1 N aqueous HCl buffer
[10] = Half life in acetate buffer at pH 4; assay type: physicochemical; conditions: for half-life: acetate buffer; for t1/2: buffer
[11] = Tmax in Sprague-Dawley rat assessed as atazanavir level at 3 mg/kg equiv of atazanavir administered orally; assay type: ADME, organism-based; conditions: in vivo, po
[12] = Ratio of AUClast in Sprague-Dawley rat assessed as atazanavir to parent level at 3 mg/kg equiv of atazanavir administered orally; assay type: ADME, organism-based; conditions: in vivo, po
[13] = Solubility of compound in phosphate buffer at pH 6.5; assay type: physicochemical
[14] = Total AUC in Sprague-Dawley rat assessed as ratio of atazanavir to parent level at 3 mg/kg equiv of atazanavir administered orally; assay type: ADME, organism-based; conditions: in vivo, po
[15] = Solubility of compound in acetate buffer at pH 4; assay type: physicochemical
[16] = Cmax in Sprague-Dawley rat assessed as atazanavir level at 3 mg/kg equiv of atazanavir administered orally; assay type: ADME, organism-based; parameters: route oral, dose 3 mg/kg(equiv); conditions: in vivo, po
[17] = Half life in rat plasma measured after 60 mins; assay type: ADME, cell-free
[18] = Half life in rat hepatocytes measured after 120 mins; assay type: ADME, cell-based, Hepatocyte
[19] = Solubility of compound in fasted state simulated intestinal fluid; assay type: physicochemical; conditions: simulated gi fluid
[20] = Stability in rat plasma measured after 60 mins; assay type: ADME, cell-free; conditions: 1 h
[21] = Trough plasma concentration in Sprague-Dawley rat at 30 mg/kg, po measured after 24 hrs; assay type: ADME, organism-based; conditions: read-out: Cmin
[22] = 0.1 N aqueous HCl buffer, read-out: solubility
[23] = acetate buffer, read-out: solubility

Row | SMILES | F [4] | solubility [5, 22] | AUClast [7] | concentration [8] | half-life [9] | half-life [10] | Tmax [11] | Ratio AUC [12] | solubility [13] | Ratio AUC [14] | solubility [15, 23] | Cmax [16] | solubility ([5]; buffer) | t1/2 [6] | further results
1 | COC(=O)N[C@H](C(=O)N[C@@H](Cc1ccccc1)[C@H](CN(Cc1ccc(-c2ccccn2)cc1)NC(=O)[C@@H](NC(=O)OC)C(C)(C)C)OC(=O)OCOC(=O)[C@@H](N)C(C)C)C(C)(C)C | – | – | – | – | – | – | – | – | – | – | – | – | – | – | Stabilty [1]: Unstable; Stabilty [2]: Unstable; Stabilty [3]: Unstable
2 | COC(=O)N[C@H](C(=O)N[C@@H](Cc1ccccc1)[C@H](CN(Cc1ccc(-c2ccccn2)cc1)NC(=O)[C@@H](NC(=O)OC)C(C)(C)C)OC(=O)OC(C)OC(=O)[C@@H](N)C(C)C)C(C)(C)C (stereo in doubt; 18) | 53% | – | 1.013 µM·h | – | > 500 h | > 500 h | 0.8 h | – | – | 2.6 | > 3000 µg/mL | 320 nM | > 1200 µg/mL | > 10.9 h | Cmin [8]: Bld
3 | COC(=O)N[C@H](C(=O)N[C@@H](Cc1ccccc1)[C@H](CN(Cc1ccc(-c2ccccn2)cc1)NC(=O)[C@@H](NC(=O)OC)C(C)(C)C)OC(=O)OC(C)OC(=O)[C@@H](N)C(C)C)C(C)(C)C (stereo in doubt; 20) | – | – | – | – | – | – | – | – | – | – | – | – | > 3200 µg/mL | 5.3 h | t1/2 [10]: 334.3 h; solubility ([15]; buffer): > 1800 µg/mL
4 | COC(=O)N[C@H](C(=O)N[C@@H](Cc1ccccc1)[C@H](CN(Cc1ccc(-c2ccccn2)cc1)NC(=O)[C@@H](NC(=O)OC)C(C)(C)C)OC(=O)OC(C)OC(=O)[C@H](C(C)C)N(C)C)C(C)(C)C (stereo in doubt; 21) | 58% | > 1900 µg/mL | 1.097 µM·h | 1.9 nM | > 500 h | > 500 h | 0.6 h | 1 | < 1 µg/mL | 5.7 | > 980 µg/mL | 581 nM | – | > 500 h | half-life [17]: 0.683 h; half-life [18]: 0.417 h; solubility [19]: 3 µg/mL (≈ 3.26 µM)
5 | COC(=O)N[C@H](C(=O)N[C@@H](Cc1ccccc1)[C@H](CN(Cc1ccc(-c2ccccn2)cc1)NC(=O)[C@@H](NC(=O)OC)C(C)(C)C)OC(=O)OC(C)OC(=O)[C@H](C(C)C)N(C)C)C(C)(C)C (stereo in doubt; 22) | 103% | – | 1.958 µM·h | 16.7 nM | – | – | 0.8 h | 17 | – | 92.1 | – | 398 nM | > 1800 µg/mL | 214.9 h | Stabilty [20]: Stable; t1/2 [10]: 334.3 h; solubility ([15]; buffer): > 490 µg/mL; solubility [19]: 11 µg/mL (≈ 12 µM)
6 | COC(=O)N[C@H](C(=O)N[C@@H](Cc1ccccc1)[C@H](CN(Cc1ccc(-c2ccccn2)cc1)NC(=O)[C@@H](NC(=O)OC)C(C)(C)C)OC(=O)OC(C)OC(=O)[C@@H](C(C)C)N(C)C)C(C)(C)C (stereo in doubt; 23) | – | > 1700 µg/mL | – | – | > 500 h | > 500 h | – | – | < 1 µg/mL | – | > 600 µg/mL | – | – | – | half-life [6]: > 500 h
7 | COC(=O)N[C@H](C(=O)N[C@@H](Cc1ccccc1)[C@H](CN(Cc1ccc(-c2ccccn2)cc1)NC(=O)[C@@H](NC(=O)OC)C(C)(C)C)OC(=O)OC(C)OC(=O)[C@@H](C(C)C)N(C)C)C(C)(C)C (stereo in doubt; 24) | 91% | – | 1.737 µM·h | 24 nM | – | – | 0.5 h | 22 | – | 104.8 | – | 324 nM | > 2600 µg/mL | – | t1/2 ([9]; buffer): > 500 h; solubility ([15]; buffer): > 540 µg/mL
8 | COC(=O)N[C@H](C(=O)N[C@@H](Cc1ccccc1)[C@@H](O)CN(Cc1ccc(-c2ccccn2)cc1)NC(=O)[C@@H](NC(=O)OC)C(C)(C)C)C(C)(C)C [ATAZANAVIR] | – | – | – | – | – | – | – | – | < 1 µg/mL | – | < 1 µg/mL | – | – | – | concentration at 24 h [21]: 5 nM

Second part, led by results:

Row | F [4] | solubility [5, 22] | AUClast [7] | concentration [8] | half-life [9] | half-life [10] | Tmax [11] | Ratio AUC [12] | solubility [13] | Ratio AUC [14] | solubility [15, 23] | Cmax [16] | solubility ([5]; buffer) | t1/2 [6] | SMILES | further results
9 | 46% | > 1200 µg/mL | 0.883 µM·h | 1.9 nM | > 500 h | > 500 h | 0.4 h | 2.3 | 5 µg/mL (≈ 5.52 µM) | 7.7 | > 450 µg/mL | 573 nM | – | – | COC(=O)N[C@H](C(=O)N[C@@H](Cc1ccccc1)[C@H](CN(Cc1ccc(-c2ccccn2)cc1)NC(=O)[C@@H](NC(=O)OC)C(C)(C)C)OC(=O)OCOC(=O)[C@H](C(C)C)N(C)C)C(C)(C)C | half-life [6]: 104 h
10 | 36% | > 1800 µg/mL | 0.689 µM·h | – | > 500 h | 376 h | 0.5 h | 2 | 6 µg/mL (≈ 6.62 µM) | 5.3 | > 500 µg/mL | 639 nM | – | – | COC(=O)N[C@H](C(=O)N[C@@H](Cc1ccccc1)[C@H](CN(Cc1ccc(-c2ccccn2)cc1)NC(=O)[C@@H](NC(=O)OC)C(C)(C)C)OC(=O)OCOC(=O)[C@@H](C(C)C)N(C)C)C(C)(C)C | half-life [6]: 64 h; Cmin [8]: Bld
11 | – | – | – | – | 17 h | 16.5 h | – | – | – | – | – | – | – | – | COC(=O)N[C@H](C(=O)N[C@@H](Cc1ccccc1)[C@H](CN(Cc1ccc(-c2ccccn2)cc1)NC(=O)[C@@H](NC(=O)OC)C(C)(C)C)OC(=O)OCOC(=O)[C@@H](N)Cc1ccccc1)C(C)(C)C | –
